# Measurements reported in ChEMBL document CHEMBL1201862, “PubChem BioAssay data set” (2004).
# Activity calls are given as the source filed them. Rule as the data show it, for most assays here: actives have a measured EC50 and inactives only a lower limit.
# How the values were obtained:
# [1] = inhibitors of intracellular T. cruzi replication, confirmation, NIH3T3 host cells, beta-gal luminescence (AID 2044); assay type: functional, cell-based;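 also: intracellular parasites grown in NIH/3T3 mouse fibroblasts as host cells; luminescent beta-galactosidase reporter signal from transgenic T. cruzi replicating inside host cells; inhibitors lower the luminescence signal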
# [2] = cytotoxicity toward NIH3T3 fibroblasts, dose response, counter-screen, cell-based, ATP luminescence, mouse fibroblasts (AID 2010); assay type: functional;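 also: cells exposed to compound for about 90 hours before reading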
# [3] = target: T1, Heat shock factor protein 1 (Mus musculus, UniProt P38532); assay: HSF1 potentiators in luciferase reporter cells, confirmation, cell-based, NIH3T3, luminescence, dose retest (AID 435004); assay type: functional;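 also: stress induced by proteasome inhibitor MG132 added 30 min after compound; luciferase reporter driven by HSF1 response element in NIH3T3 cells; actives raise luminescence as potentiators of the MG132 stress response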
# T1 sequence (P38532 whole entry): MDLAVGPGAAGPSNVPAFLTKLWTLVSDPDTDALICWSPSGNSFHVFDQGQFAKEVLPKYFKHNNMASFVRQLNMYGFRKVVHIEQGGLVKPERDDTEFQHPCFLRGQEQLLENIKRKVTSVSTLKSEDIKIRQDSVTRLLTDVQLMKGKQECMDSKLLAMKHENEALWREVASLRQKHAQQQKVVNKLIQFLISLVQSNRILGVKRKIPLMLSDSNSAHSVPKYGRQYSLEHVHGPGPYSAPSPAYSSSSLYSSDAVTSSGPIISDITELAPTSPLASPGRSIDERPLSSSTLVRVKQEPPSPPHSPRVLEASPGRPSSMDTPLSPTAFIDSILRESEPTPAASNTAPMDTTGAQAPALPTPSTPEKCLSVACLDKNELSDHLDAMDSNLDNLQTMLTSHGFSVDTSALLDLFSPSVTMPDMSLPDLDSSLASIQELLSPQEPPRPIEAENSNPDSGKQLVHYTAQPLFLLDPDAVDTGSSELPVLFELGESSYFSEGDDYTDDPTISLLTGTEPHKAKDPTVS
# [4] = target: Cytochrome P450 3A4 (Homo sapiens, UniProt P08684);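 also: CYP3A4 tested as one member of a cytochrome P450 panel screen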
# [5] = target: Cytochrome P450 2D6 (Homo sapiens, UniProt P10635);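 also: CYP2D6 member of a cytochrome P450 panel assay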
# [6] = target: T2, Cytochrome P450 1A2 (Homo sapiens, UniProt P05177);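 also: PubChem cytochrome P450 panel assay, CYP1A2 panel member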
# T2 sequence (P05177 whole entry): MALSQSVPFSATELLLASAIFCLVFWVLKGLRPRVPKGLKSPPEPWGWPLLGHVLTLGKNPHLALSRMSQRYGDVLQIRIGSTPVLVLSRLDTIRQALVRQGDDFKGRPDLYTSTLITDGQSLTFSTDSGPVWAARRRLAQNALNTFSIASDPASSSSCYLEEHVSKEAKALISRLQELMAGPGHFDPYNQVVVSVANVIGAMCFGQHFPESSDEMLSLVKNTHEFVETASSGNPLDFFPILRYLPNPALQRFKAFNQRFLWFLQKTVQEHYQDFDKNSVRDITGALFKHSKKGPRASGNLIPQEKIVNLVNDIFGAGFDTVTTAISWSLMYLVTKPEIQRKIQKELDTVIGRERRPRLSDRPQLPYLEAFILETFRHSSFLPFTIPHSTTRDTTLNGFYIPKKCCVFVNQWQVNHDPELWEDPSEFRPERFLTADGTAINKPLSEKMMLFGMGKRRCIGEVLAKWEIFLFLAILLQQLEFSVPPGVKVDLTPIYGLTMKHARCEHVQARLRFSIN
# [7] = test system: Streptococcus sp. 'group A'; assay: growth inhibition of control SK(-) GAS strain, dose response, counter-screen for streptokinase expression inhibitor project, luminescence, kanamycin, BacTiterGlo, confirmation (AID 1900); assay type: functional, organism-based
# [8] = test system: Streptococcus; assay: Group A Streptococcus viability loss, dose response, counter-screen for streptokinase expression inhibitor project, luminescence, BacTiterGlo (AID 1915); assay type: functional, organism-based;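 also: potency for reduction of bacterial viability or growth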
# Cytochrome P450 3A4, sequence (P08684 whole entry): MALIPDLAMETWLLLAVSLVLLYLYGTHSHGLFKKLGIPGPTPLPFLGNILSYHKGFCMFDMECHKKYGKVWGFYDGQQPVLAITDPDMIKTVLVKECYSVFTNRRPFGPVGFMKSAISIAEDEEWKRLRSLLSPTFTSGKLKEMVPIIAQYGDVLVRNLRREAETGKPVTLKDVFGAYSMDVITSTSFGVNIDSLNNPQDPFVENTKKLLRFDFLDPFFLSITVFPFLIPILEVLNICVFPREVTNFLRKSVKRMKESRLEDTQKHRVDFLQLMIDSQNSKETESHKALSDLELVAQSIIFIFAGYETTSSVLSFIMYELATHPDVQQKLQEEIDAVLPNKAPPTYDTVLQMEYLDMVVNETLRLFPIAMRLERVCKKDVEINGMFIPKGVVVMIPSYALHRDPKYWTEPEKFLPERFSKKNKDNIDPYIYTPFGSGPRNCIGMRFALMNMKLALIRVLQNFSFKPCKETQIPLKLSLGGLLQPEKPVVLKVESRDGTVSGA
# Cytochrome P450 2D6, sequence (P10635 whole entry): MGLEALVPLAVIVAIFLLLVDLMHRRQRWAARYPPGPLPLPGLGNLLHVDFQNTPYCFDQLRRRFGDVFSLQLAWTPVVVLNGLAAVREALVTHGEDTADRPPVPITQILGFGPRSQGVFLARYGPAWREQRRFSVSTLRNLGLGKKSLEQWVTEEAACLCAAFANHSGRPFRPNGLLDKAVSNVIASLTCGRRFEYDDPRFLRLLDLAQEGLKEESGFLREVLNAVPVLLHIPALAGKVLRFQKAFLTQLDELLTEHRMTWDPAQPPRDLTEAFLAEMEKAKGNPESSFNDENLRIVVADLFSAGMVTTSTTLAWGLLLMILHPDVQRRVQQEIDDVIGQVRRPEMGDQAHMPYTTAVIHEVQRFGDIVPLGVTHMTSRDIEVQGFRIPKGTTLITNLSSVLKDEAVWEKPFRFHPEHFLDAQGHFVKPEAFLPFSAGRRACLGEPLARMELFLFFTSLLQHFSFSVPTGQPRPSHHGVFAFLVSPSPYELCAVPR
structure (smiles),measurement,setting,value
CCN1CCN(c2oc(COc3ccc(-c4ccccc4)cc3)nc2C#N)CC1,EC50,[1],2.66 µM (active)
same,EC50,[2],> 60 µM (not active)
COc1cccc(NC(=O)CSc2nc(N)cc(N)n2)c1,EC50,[3],> 260 µM (inactive)
Cc1ccc2cc(C(c3nnnn3C3CCCC3)N(Cc3ccco3)Cc3cccs3)c(O)nc2c1 (stereo not drawn),EC50,[1],3.2 µM (active)
same,EC50,[2],> 60 µM (not active)
CO[C@@H]1CC=C2CCN3CCC4=C(CC(=O)OC4)[C@]23C1,AC50,[4],39.8 µM (inconclusive)
CC(C)(C)NC(=O)CSc1nnc(Cc2ccc3c(c2)OCO3)n1C1CCCCC1,AC50,[5],2.82 µM (inconclusive)
CN1CCN(c2ccc(NC(=O)c3ccc4c(c3)nc(O)n4Cc3ccc(F)cc3)cc2)CC1,EC50,[1],0.955 µM (active)
same,EC50,[2],> 30 µM (not active)
CCSc1nnc(NC(=O)CSc2nc3c(cc2C#N)CCCC3)s1,AC50,[5],3.55 µM (inconclusive)
same,AC50,[6],15.8 µM (inconclusive)
CCOc1ccc(NC(=O)c2ccc(OC)cc2)cc1,AC50,[6],20 µM (inconclusive)
COc1ccc(S(=O)(=O)N2CCOC23CCN(S(=O)(=O)c2ccc([N+](=O)[O-])cc2)CC3)cc1,EC50,[1],2.03 µM (active)
same,EC50,[2],> 30 µM (not active)
CCOC(=O)NC(NC(=O)OCC)C(=O)c1ccc(F)cc1,AC50,[6],10 µM (inconclusive)
COc1ccc(C(F)(F)F)cc1N/C=C\c1nnnn1-c1ccccc1,AC50,[6],1.41 µM (inconclusive)
same,AC50,[4],31.6 µM (inconclusive)
CCCCCCCCCCCCC/C=C\[C@@H](O)[C@H](CO)NC(C)=O,AC50,[5],3.98 µM (inconclusive)
O=C(CSc1nccn(-c2ccc(F)c(F)c2)c1=O)NC1CCCC1,EC50,[3],> 260 µM (inactive)
O=C(CCc1nnc(CCCCc2ccccc2)o1)NCCN1CCCCC1=O,EC50,[3],> 260 µM (inactive)
c1ccc(C(c2ccccc2)c2noc(CN3CCC(c4ccncc4)CC3)n2)cc1,EC50,[1],0.943 µM (active)
same,EC50,[2],> 30 µM (not active)
O=C(c1ccccc1)[C@H](Nc1ccc2ccccc2c1)c1ccccc1,AC50,[5],1.58 µM (inconclusive)
C=CCn1c(=O)c2c(nc(Br)n2Cc2ccccc2Cl)n(C)c1=O,AC50,[6],15.8 µM (inconclusive)
COc1ccc([N+](=O)[O-])cc1N=C(S)NC(NC(=O)Cc1ccc(OC)c(OC)c1)C(Cl)(Cl)Cl (stereo not drawn),AC50,[6],17.8 µM (inconclusive)
Cc1c(C(=O)NCc2ccc3c(c2)OCO3)oc2ccc(S(=O)(=O)N3CCC(C)CC3)cc12,EC50,[1],1.04 µM (active)
same,EC50,[2],50.9 µM (active)
CCC(Sc1nc2cc3c(cc2c(=O)n1Cc1ccco1)OCO3)C(=O)NCCOC (stereo not drawn),EC50,[3],> 260 µM (inactive)
COc1ccc(CCN=C(NS(=O)(=O)c2ccccc2)c2ccccc2)cc1OC,EC50,[3],> 260 µM (inactive)
CCS(=O)(=O)C(=C1NCCO1)S(=O)(=O)CC,EC50,[3],> 260 µM (inactive)
COc1ccccc1N1CCN(C(CNS(=O)(=O)c2cc(F)ccc2F)c2cccnc2)CC1 (stereo not drawn),EC50,[1],0.367 µM (active)
same,EC50,[2],> 60 µM (not active)
CN(C)S(=O)(=O)c1ccc(C(=O)Nc2nnc(-c3ccc4c(c3)CCCC4)o2)cc1,EC50,[7],0.286 µM (active)
same,EC50,[8],0.264 µM (active)
COC(=O)CN1C(c2cccc(Cl)c2)=Nc2ccc(Cl)cc2C1c1ccccc1 (stereo not drawn),EC50,[3],> 260 µM (inactive)
COc1ccc(C(=O)N2CCC3(CC2)CCN(c2cccc(-c4ccccc4)c2)CC3)cc1,AC50,[6],25.1 µM (inconclusive)
COc1ccc(C(=O)n2nc(C)cc2Nc2ccccc2)cc1,EC50,[3],7.2 µM (active)
NCCNC(=O)c1ncsc1-c1cccc(F)c1,AC50,[4],31.6 µM (inconclusive)
C[C@](N)(CCP(=O)(O)O)C(=O)O,AC50,[6],39.8 µM (inconclusive)
CCN(CC)C(=O)c1ccc(C)c(Br)c1,EC50,[3],> 260 µM (inactive)
CC(c1nnnn1C(C)(C)C)N(Cc1cccnc1)Cc1ccccc1Cl (stereo not drawn),EC50,[1],0.496 µM (active)
same,EC50,[2],> 60 µM (not active)
Cc1csc(-c2cnn(-c3ccccc3)c2NC(=O)c2cccc(C(F)(F)F)c2)n1,EC50,[3],> 260 µM (inactive)
